The results in this text go back to patent US20130253179A1, “Functionalization Processes and Reactants Used in Such Processes Using an Isatoic Anhydride or a Derivative Thereof, Biological Molecules Thus Treated and Kits” (priority 2010, published 2013).

In the test the test system is ORN with 27 bases in mixture with an ODN with 27 bases. The test is described as follows: Selective functionalisation, capture, cleaving and elution of an ORN from an ORN/ODN mixture (HPLC 260 nm). The conditions noted are these: injection 2, after two functionalisation/precipitation steps, 65° C. 1 h. As to the method: We have a 27-mer ODN (Eurogentec ref. 21438-DNA batch #2177673, Sequence: 5′-AAC-CGC-AGT-GAC-ACC-CTC-ATC-ATT-ACA-3′) in 650 μM solution in water, and a 27-mer ORN (Eurogentec ref. 21437-RNA batch #2177672, Sequence: 5′-AAC-CGC-AGU-GAC-ACC-CUC-AUC-AUU-ACA-3′) in 952 μM solution in water. 15.4 μL of ODN and 17.5 μL of ORN are mixed and topped up with 67.1 μL of ultrapure water.
80 μL of the mixture (8 nmoles) are evaporated until dry and taken up in: 10 μL of water, 5 μL of isatoic anhydride Biot PEG4(SS)IA Me (24); […]), in 480 mM DMF solution, and 5 μL of Triethyl ammonium acetate buffer in 1 M solution in water. The medium is placed in the oven at 65° C. for one hour.
The medium is then subjected to a triple precipitation with lithium perchlorate LiClO4 and with acetone, in order to free it from the residual BiotPEG4 (SS) IA Me: 18 μL of LiClO4 in 3M solution in water and 262 μL of water are added to the medium. After vortex stirring, 900 μL of acetone are added, then the medium is agitated once again and centrifuged (5 minutes at 13,000 rpm at ambient temperature). The supernatant is then removed carefully and the same method is repeated twice more with 18 μL of LiClO4 and 282 μL of water. Finally, the medium is washed with 900 μL of acetone before stirring and centrifuging. The greater part of the supernatant is removed carefully before drying in the rotary evaporator. […]

As to `Cn1c(=O)oc(=O)c2cc(NC(=O)CCSSCCNC(=O)CCOCCOCCOCCOCCNC(=O)CCCCC3SCC4NC(=O)NC43)ccc21` (stereo not shown) [5Biot PEG4 SS IA Me 24], the “initial ORN functionalised” value stood at 95%.
